Experimental data published in patent publication US7850948B2, “Radiohalogenated benzamide derivatives and their use in tumor diagnosis and tumor therapy” (Bayer Schering Pharma AG, priority 2004, dated 2010).

Columns and labels:
[1] = test system: B16/F1 tumor-bearing C57BL6 mice; assay: Tissue concentration of radioiodinated benzamides in the C57BL6-B16/F1 mouse model (organ distribution and tumor accumulation); type: in vivo; details: for Blood tissue concentration / Liver tissue concentration / Tumor tissue concentration: n = 3
Procedure: (§1) After synthesis and purification, the compounds according to the invention are dissolved in a physiologically compatible medium and kept ready for injection. Organ distribution and tumor accumulation experiments were performed in B16/F1 tumor-bearing C57BL6 mice, and SK-Mel-3 tumor-bearing NMRI nude mice (15-22 g).
(§2) Murine B16/F1 and human SK-Mel-3 cells were ordered from ATCC. B16/F1 cells (0.5×10^6) are washed in buffer (preferably phosphate buffer), suspended and inoculated subcutaneously into C57BL6 mice, 100 μl, in the right rear flanks. Sk-Mel-3 cells (5×10^6) are washed in buffer and then inoculated subcutaneously into NMRI mice in Matrigel® (100 μl) in the right side of the trunk. After about 8-10 days, the animals develop palpable tumors with a surface area of about 30 mm^2. The distribution studies are performed after intravenous caudal vein administration of 3.7-5.5 MBq of the substances according to the invention in 50-100 μl of volume. At certain times after administration, the animals are sacrificed, organs and tumors are removed, optionally dabbed dry, weighed and measured for radioactive content (γ measurement) in a calibrator with the corresponding isotope standard. The results are depicted as % of the injected dose (ID)/g of tissue (Table 1).

thyroid gland = assay: Thyroid gland accumulation as indication of dehalogenation in vivo
Description: Another drawback of the most similar compounds of the prior art is that the compounds of Eisenhut et al. dehalogenate more quickly in the body than the compounds according to the invention.
The thyroid gland accumulation of BA40 and BA42, an indication of dehalogenation in vivo, is increased by a factor of 10-15 compared to the compounds according to the invention.

[2] = test system: SK-Mel-3 tumor-bearing NMRI nude mice; assay: Tumor accumulation in the NMRI-SK-Me13 human xenograft mouse model; type: in vivo; details: after 96 hours
Procedure: as §1, §2

Lipophilicity = type: physicochemical; details: in words
[3] = 1 hour after intravenous administration
[4] = 5 hours after intravenous administration
[5] = 24 hours after intravenous administration
[6] = 6 h after intravenous administration

Blood tissue concentration [1, 3] | Liver tissue concentration [1, 3] | Tumor tissue concentration [1, 3] | Blood tissue concentration [1, 4] | Liver tissue concentration [1, 4] | Tumor tissue concentration [1, 4] | Blood tissue concentration [1, 5] | Liver tissue concentration [1, 5] | Tumor tissue concentration [1, 5] | Liver concentration compared with BA42 ([1]; after 6 and 24 hours, in words) | Blood accumulation compared with the closest prior art (compound of Eisenhut et al. with NH-Ac) ([1]; in words) | Retardation in the melanoma tissue ([1]; in words) | Stability of the bonded radioisotope I-131 (dehalogenation in vivo) (thyroid gland) | Blood tissue concentration [1, 6] | Liver tissue concentration [1, 6] | Tumor tissue concentration [1, 6] | Compound | also measured
1.26 % Injected Dose (ID)/g of Tissue | 16.35 % Injected Dose (ID)/g of Tissue | 17.45 % Injected Dose (ID)/g of Tissue | 0.76 % Injected Dose (ID)/g of Tissue | 8.54 % Injected Dose (ID)/g of Tissue | 14.83 % Injected Dose (ID)/g of Tissue | 0.07 % Injected Dose (ID)/g of Tissue | 0.75 % Injected Dose (ID)/g of Tissue | 29.69 % Injected Dose (ID)/g of Tissue | considerably lower | considerably less | extended retardation | more stable | – | – | – | CCN(CC)CCNC(=O)c1cc(I)c(NC(=O)c2ccc(OC)cc2)cc1OC [BA95] | –
1.30 % Injected Dose (ID)/g of Tissue | 13.71 % Injected Dose (ID)/g of Tissue | 10.73 % Injected Dose (ID)/g of Tissue | – | – | – | 0.22 % Injected Dose (ID)/g of Tissue | 1.18 % Injected Dose (ID)/g of Tissue | 23.46 % Injected Dose (ID)/g of Tissue | considerably lower | considerably less | extended retardation | more stable | 0.82 % Injected Dose (ID)/g of Tissue | 5.81 % Injected Dose (ID)/g of Tissue | 21.67 % Injected Dose (ID)/g of Tissue | CCN(CC)CCNC(=O)c1cc(I)c(NC(=O)c2ccc(Cl)cc2)cc1OC [BA93] | –
1.06 % Injected Dose (ID)/g of Tissue | 12.68 % Injected Dose (ID)/g of Tissue | 9.68 % Injected Dose (ID)/g of Tissue | – | – | – | 0.22 % Injected Dose (ID)/g of Tissue | 0.76 % Injected Dose (ID)/g of Tissue | 13.83 % Injected Dose (ID)/g of Tissue | considerably lower | considerably less | – | more stable | 0.97 % Injected Dose (ID)/g of Tissue | 3.63 % Injected Dose (ID)/g of Tissue | 16.72 % Injected Dose (ID)/g of Tissue | CCN(CC)CCNC(=O)c1cc(I)c(NC(=O)c2ccccc2)cc1OC [BA91] | –
1.46 % Injected Dose (ID)/g of Tissue | 19.11 % Injected Dose (ID)/g of Tissue | 14.83 % Injected Dose (ID)/g of Tissue | 0.69 % Injected Dose (ID)/g of Tissue | 6.53 % Injected Dose (ID)/g of Tissue | 22.69 % Injected Dose (ID)/g of Tissue | 0.05 % Injected Dose (ID)/g of Tissue | 0.49 % Injected Dose (ID)/g of Tissue | 18.82 % Injected Dose (ID)/g of Tissue | considerably lower | considerably less | extended retardation | more stable | – | – | – | CCN(CC)CCNC(=O)c1cc(I)c(NC(=O)c2ccc3c(c2)OCO3)cc1OC [BA52, Benzo[1,3]dioxole-5-carboxylic acid [4-(2-diethylamino-ethylcarbamoyl)-2-iodo-5-methoxy-phenyl]-amide] | Blood accumulation compared with BA42 ([1]; after 6 and 24 hours, in words): considerably lower; Retention in the tumor compared with BA40 and BA42 ([1]; in words): considerably longer; Tumor concentration compared with BA40 and BA42 ([1]; in words): comparable; Accumulation in the tumor [2]: at least 13 % of the injected dose per gram tissue; Lipophilicity compared with the prior art compounds (Lipophilicity): higher lipophilicity
1.21 % Injected Dose (ID)/g of Tissue | 15.49 % Injected Dose (ID)/g of Tissue | 25.51 % Injected Dose (ID)/g of Tissue | – | – | – | 0.07 % Injected Dose (ID)/g of Tissue | 0.76 % Injected Dose (ID)/g of Tissue | 31.66 % Injected Dose (ID)/g of Tissue | considerably lower | considerably less | extended retardation | more stable | 0.70 % Injected Dose (ID)/g of Tissue | 4.64 % Injected Dose (ID)/g of Tissue | 28.10 % Injected Dose (ID)/g of Tissue | CCN(CC)CCNC(=O)c1cc(I)c(NC(=O)c2ccc(F)cc2)cc1OC [BA100] | –
